The record followed here is US20060183901A1, “Crystalline form of an indazole-carboxamide compound” (THERAVANCE, INC., priority 2005, published 2006).

What is called inhibition is the percentage by which the read-out fell short of the control. Read a high inhibition as a response far below the control.

The data set concerns the target T1, hERG cardiac potassium channel (Homo sapiens, UniProt Q12809).
T1 construct: host or cells: CHO-K1
The data set can be described thus: In vitro voltage clamp assay of inhibition of potassium ion current in whole cells expressing hERG. The class given is cell-based. The settings on record: pH 7.4, 5 minutes exposure, CHO-K1 cells. How it is done:
Assay 4: In Vitro Voltage Clamp Assay of Inhibition of Potassium Ion Current in Whole Cells Expressing the hERG Cardiac Potassium Channel
CHO-K1 cells stably transfected with hERG cDNA were obtained from Gail Robertson at the University of Wisconsin. Cells were held in cryogenic storage until needed. Cells were expanded and passaged in Dulbecco's Modified Eagles Medium/F 12 supplemented with 10% fetal bovine serum and 200 μg/mL geneticin. Cells were seeded onto poly-D-lysine (100 μg/mL) coated glass coverslips, in 35 mm^2 dishes (containing 2 mL medium) at a density that enabled isolated cells to be selected for whole cell voltage-clamp studies. The dishes were maintained in a humidified, 5% CO2 environment at 37° C.
Extracellular solution was prepared at least every 7 days and stored at 4° C. when not in use. […]
The coverslips on which the cells were seeded were transferred to a recording chamber and perfused continuously. […] Peak current amplitudes during the repolarization phase were determined using pClamp software. […]
Peak current amplitudes during the repolarization phase were determined using pCLAMP software. […] The normalized current means and standard errors for each condition were calculated and plotted versus the time course of the experiment. […]

T1 sequence (Q12809 whole entry): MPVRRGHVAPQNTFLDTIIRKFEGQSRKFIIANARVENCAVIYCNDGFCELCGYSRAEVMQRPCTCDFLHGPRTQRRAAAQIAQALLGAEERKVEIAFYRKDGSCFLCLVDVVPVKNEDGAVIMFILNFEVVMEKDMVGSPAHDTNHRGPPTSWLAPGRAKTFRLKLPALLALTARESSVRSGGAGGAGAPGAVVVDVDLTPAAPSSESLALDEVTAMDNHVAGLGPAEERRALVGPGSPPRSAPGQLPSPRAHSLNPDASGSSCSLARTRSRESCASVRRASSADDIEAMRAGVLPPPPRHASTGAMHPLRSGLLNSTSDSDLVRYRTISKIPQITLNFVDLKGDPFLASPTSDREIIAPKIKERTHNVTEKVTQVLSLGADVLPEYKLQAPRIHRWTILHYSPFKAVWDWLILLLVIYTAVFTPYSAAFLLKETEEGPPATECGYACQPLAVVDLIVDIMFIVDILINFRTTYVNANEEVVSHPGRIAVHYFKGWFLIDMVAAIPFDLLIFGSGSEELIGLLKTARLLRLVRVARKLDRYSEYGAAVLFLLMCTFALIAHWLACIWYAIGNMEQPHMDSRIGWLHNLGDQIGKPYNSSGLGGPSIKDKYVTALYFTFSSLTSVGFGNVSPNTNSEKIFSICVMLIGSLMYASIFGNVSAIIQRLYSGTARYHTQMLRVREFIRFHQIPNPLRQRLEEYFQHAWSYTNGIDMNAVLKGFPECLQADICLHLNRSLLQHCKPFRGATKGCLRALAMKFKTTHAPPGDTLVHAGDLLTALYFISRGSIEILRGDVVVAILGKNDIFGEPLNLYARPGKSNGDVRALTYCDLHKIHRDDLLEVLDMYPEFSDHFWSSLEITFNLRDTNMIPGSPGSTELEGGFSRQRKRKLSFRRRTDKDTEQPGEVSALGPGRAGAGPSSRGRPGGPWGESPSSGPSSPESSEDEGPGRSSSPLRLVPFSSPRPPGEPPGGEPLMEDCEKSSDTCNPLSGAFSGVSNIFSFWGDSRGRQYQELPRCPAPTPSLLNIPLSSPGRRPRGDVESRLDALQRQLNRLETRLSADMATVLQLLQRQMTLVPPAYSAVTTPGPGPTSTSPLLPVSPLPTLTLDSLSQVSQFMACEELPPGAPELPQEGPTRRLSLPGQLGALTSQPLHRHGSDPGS

Consider `CC(=O)N1CCN(CCN2C3CCC2CC(NC(=O)c2nn(C(C)C)c4ccccc24)C3)CC1` [compound of formula I, 1-isopropyl-1H-indazole-3-carboxylic acid {(1S,3R,5R)-8-[2-(4-acetylpiperazin-1-yl)ethyl]-8-azabicyclo[3.2.1]oct-3-yl}amide], for which the inhibition at 5 min, 3 µM was less than 15%.
